{"source": "patent US20070141581A1", "about": "“Membrane androgen receptor as a therapeutic target for the prevention/promotion of cell death” (University of North Texas Health Science Center at Fort …, priority 2005, published 2007)", "key": {"[1]": {"system": "ERK", "test": "ERK phosphorylation in C6 glial cells (Western blot)", "type": "cell-based, Rat", "procedure": "(§1) Materials and Methods. Cell culture. Rat glioma cells (C6; American Type Culture Collection, Manassas, Va.) were propagated in Dulbecco's Modified Eagle Medium (DMEM; Invitrogen, Carlsbad, Calif.) supplemented with 10% charcoal-stripped fetal bovine serum (FBS; Hyclone, Logan, Utah), and maintained at 37° C. in a humidified environment containing 5% CO2.\n(§2) Treatment of cultures. C6 glial cells were treated with either vehicle control (DMSO, 0.1%), dihydrotestosterone (DHT) (Steraloids Inc., Newport, R.I.), or 5α-androstan-17β-ol-3-one-3-o-carboxymethyloxime:BSA (DHT-BSA) (Steraloids Inc.) at the concentrations indicated for 30 minutes, to assess the effects of these hormones on ERK and Akt phosphorylation. […] Inhibition of the classical androgen receptor was achieved using the androgen receptor antagonist, Flutamide (3 μM; Sigma-Aldrich, St. Louis, Mo.), which was applied 30 minutes prior to treatment with the hormone. Inhibition of MEK, the signaling protein upstream of ERK was achieved using U0126 (10 μM; Cell Signaling, Beverly, Mass.), also pre-incubated for a period of 30 minutes prior to hormone administration.\n(§3) Western blot analysis. Following treatment with hormone and/or inhibitor, C6 glial cells were harvested into lysis buffer containing protease and phosphatase inhibitors as described previously (25). Following homogenization, samples were centrifuged at 99,000×g for 15 min at 4° C., and the resulting supernatants were evaluated for total protein concentrations using the BioRad DC (Biorad Labs, Hercules, Calif.) protein assay kit [based on the method of Lowry; (26)]. Sample lysates were loaded onto a sodium dodecyl sulfate (SDS), 10% polyacrylamide gel (PAGE), subjected to electrophoresis, and subsequently transferred onto a polyvinylidene difluoride membrane (PVDF; 0.22 μm pore size, BioRad). The membrane was blocked for 6 hrs with a 3% BSA in 0.2% Tween-containing TBS (TBS-T) solution prior to application of the primary antibody. The following primary antibodies were used: for the detection of the androgen receptor, anti-AR (C-19) (1:200; Santa Cruz Biotechnology); for the detection of the phosphorylated form of Akt: rabbit anti-phospho-Akt (Ser473; 1:1000; Cell Signaling, Beverly, Mass.), for the detection of total Akt, anti Akt (1:1000; Cell Signaling); for the detection of the phosphorylated form of ERK1/2, rabbit anti phospho-p44/42 Map Kinase (Thr202/Tyr204, 1:1000; Cell Signaling); for the detection of total ERK1 and ERK2, goat anti-ERK1 (C-16, 1:500)/goat anti-ERK2 (C-14, 1:500; Santa Cruz Biotechnology). Antibody binding to the membrane was detected using a secondary antibody (either goat anti-rabbit or rabbit anti-goat) conjugated to horseradish peroxidase (1:20,000; Pierce, Rockford, Ill.) and visualized using enzyme-linked chemiluminescence (ECL, Amersham, Arlington Heights, Ill.) with the aid of the UVP imaging system. Phospho-Akt and phosphoERK blots were re-probed with anti-Akt or anti ERK1/2 antibodies to ensure equal loading across lanes.\n(§4) Statistical Analysis. Densitometric analysis of the Western blots was conducted using the LabWorks Image Acquisition and Analysis Software (UVP Inc., Upland, Calif.). Densitometric data from at least three independent studies was subjected to an analysis of variance (ANOVA), followed by a Tukey's post hoc analysis for the assessment of group differences, and presented as a bar graph depicting the average±S.E.M., using the GraphPad Software (San Diego, Calif.)."}, "[2]": {"system": "Akt", "test": "Akt phosphorylation in C6 glial cells (Western blot)", "type": "cell-based, Rat", "procedure": "as §1, §2, §3, §4"}, "[3]": {"system": "C6 glial cells", "test": "LDH release / iodoacetic acid (IAA) induced cell death of C6 glial cells", "type": "cell-based, Rat", "procedure": "Triton-X (Tr-X, 0.9%)-induced lysis of cells served as the positive control for LDH release. Estradiol (E2, 10 μM) treatment of cells served as the positive control for protection against IAA-induced LDH release. Data are representative of two independent studies. The effect shown in FIG. 10, is in sharp contrast to the protective effect of DHT reported previously, and supports further the observation that two, potentially competing, mechanisms regulate the effects of androgens on cell viability. In all studies that used the membrane impermeable androgen, the DHT-BSA preparation was filtered using a 10 kDa nominal cut-off column prior to application of this steroid hormone conjugate, to ensure that the effects of DHT-BSA were not attributed to, or confounded by the presence of free (unconjugated) DHT. Stevis, et al., (Stevis P E, Deecher D C, Suhadolnik L, Mallis L M, Frail D E 1999 Differential effects of estradiol and estradiol-BSA conjugates. Endocrinology 140:5455-8) have described that the commercially available preparation of estradiol-conjugated to BSA (E2-BSA), for example, was contaminated with some free estradiol."}, "[4]": {"system": "hippocampal neuron damage", "conditions": "kainic acid model, reference 33; cited from earlier work"}, "[5]": {"system": "membrane-associated androgen receptor", "test": "Flow cytometry binding of DHT-BSA-FITC to the cell surface of live C6 glial cells", "parameters": "species or system Rat", "conditions": "20-fold molar excess of DHT (1 mM) vs DHT-BSA-FITC 50 μM", "method": "Flow cytometry. Briefly, C6 glial cells (10^6 cells) were pipetted into a 1.5 ml micro-centrifuge tube, centrifuged at 250×g for 5 minutes and washed twice with 1 ml of PBS. […] In parallel, cells were re-suspended in PBS treated with BSA-FITC (50 μM; Sigma Aldrich), serving as the control for the detection of “non-specific binding”. Following this incubation period, the cells were washed twice in PBS and resuspended in 500 μl of PBS. The labeled C6 glial cells were injected into an EPICS XL-MCL flow cytometer (Beckman Coulter) and analyzed with System 2 software (Beckman Coulter).\nIn order to determine if DHT-BSA binds to a specific site on the cell surface (indicative of a membrane-associated androgen receptor), the binding of the fluorescently-labeled DHT-BSA (DHT-BSA-FITC) in C6 glial cells was evaluated. Non-“fixed” and non-permeabilized C6 glial cells were treated with DHT-BSA-FITC (50 μM) in the presence or absence of 20-fold molar excess of DHT (1 mM). Incubation of the cells with BSA-FITC alone for 30 min at 4° C. provided a measure of non-specific binding.\nTo determine if DHT-BSA binds to surface (plasma membrane) receptors, C6 glial cells were treated with DHT-BSA-FITC (50 μM) for 30 min. in the presence/absence of a 20-fold molar excess of DHT (1 mM). Samples were washed and analyzed using flow cytometric analysis."}}}
{"compound": "N#CC(=C(/N)Sc1ccccc1N)/C(C#N)=C(\\N)Sc1ccccc1N", "note": "[U0126]", "values": [{"measurement": "effect of MEK1/2 inhibitor on DHT-induced ERK phosphorylation", "setting": "[1]", "value": "blocked"}]}
{"compound": "C[C@]12CCC(=NOCC(=O)O)C[C@@H]1CC[C@@H]1[C@@H]2CC[C@]2(C)[C@@H](O)CC[C@@H]12", "note": "[DHT:CMO, 5α-androstan-17β-ol-3-one-3-o-carboxymethyloxime]", "values": [{"measurement": "ERK phosphorylation by CMO-modified DHT", "setting": "[1]; 0.01, 0.1, 1 μM, 30 min", "value": "did not alter the ability of the androgen to elicit ERK phosphorylation"}]}
{"compound": "CC(C)C(=O)Nc1ccc([N+](=O)[O-])c(C(F)(F)F)c1", "note": "[Flutamide]", "values": [{"measurement": "effect of AR antagonist on DHT-induced Akt phosphorylation", "setting": "[2]; Flutamide 3 μM", "value": "failed to inhibit"}]}
{"compound": "5α-androstan-17β-ol-3-one-3-o-carboxymethyloxime:BSA [DHT-BSA]", "values": [{"measurement": "cellular damage as assessed by LDH release into the media", "setting": "[3]; increasing concentrations, alone", "value": "did not result in cellular damage"}, {"measurement": "toxicity associated with IAA (LDH release)", "setting": "[3]; with low level insult IAA 10 μM", "value": "significantly increased the toxicity associated with IAA"}, {"measurement": "ERK phosphorylation (phospho-ERK levels relative to sham control)", "setting": "[1]; 0.01, 0.1, 1.0 μM, 30 min, particularly at 100 nM and 1 μM", "value": "substantial suppression of ERK phosphorylation"}, {"measurement": "concentration at which the inhibitory effect on ERK phosphorylation becomes evident", "setting": "[1]; 30 min, C6 glial cells", "value": 0.1, "unit": "µM"}, {"measurement": "effect on DHT-induced ERK phosphorylation", "setting": "[1]; co-applied with DHT 10 nM, 30 min, 0.01, 0.1, 1 μM, dose dependent", "value": "blocked the effect of DHT"}, {"measurement": "Akt phosphorylation (phospho-Akt levels relative to sham control)", "setting": "[2]; 0.01, 0.1 and 1 μM, 30 min", "value": "dose-dependent suppression of Akt phosphorylation"}, {"measurement": "concentration at which the inhibitory effect on Akt phosphorylation becomes evident", "setting": "[2]; 30 min, C6 glial cells", "value": 0.1, "unit": "µM"}]}
{"compound": "Pertussis toxin", "values": [{"measurement": "effect of Gi/o inhibitor on DHT-BSA-mediated suppression of ERK phosphorylation", "setting": "[1]; 50 μM, data not shown", "value": "failed to prevent"}, {"measurement": "effect of Gi/o inhibitor on DHT-BSA-mediated suppression of Akt phosphorylation", "setting": "[2]; 50 μM, data not shown", "value": "failed to prevent"}]}
{"compound": "C[C@]12CCC(=O)C[C@@H]1CC[C@@H]1[C@@H]2CC[C@]2(C)[C@@H](O)CC[C@@H]12", "note": "[DHT, dihydrotestosterone]", "values": [{"measurement": "amount of hippocampal neuron damage", "setting": "[4]", "value": "reduce the amount of hippocampal neuron damage"}, {"measurement": "ERK phosphorylation at higher concentrations", "setting": "[1]", "value": "did not result in an increase in ERK phosphorylation"}, {"measurement": "increase in the phosphorylation of ERK", "setting": "[1]", "value": 2.5, "unit": "fold"}, {"measurement": "displacement of DHT-BSA-FITC labeling", "setting": "[5]", "value": "displaced"}, {"measurement": "Akt phosphorylation (phospho-Akt levels)", "setting": "[2]", "value": "induced an increase in Akt phosphorylation"}]}
